Experimental data reported in patent US11116727B2, “Preparation containing 6,7-unsaturated-7-carbamoyl morphinan derivatives” (Shionogi & Co., Ltd., priority 2012, dated 2021).

Assay: Water solubility of the p-toluenesulfonic acid salt at different pH
Assay type: physicochemical
Experimental: The water solubility of p-toluenesulfonic acid salt of the compound represented by the above formula (IA), namely 17-(cyclopropylmethyl)-6,7-didehydro-4,5α-epoxy-3,6,14-trihydroxy-N-[2-(3-phenyl-1,2,4-oxadiazol-5-yl) propan-2-yl]morphinan-7-carboxamide 4-methylbenzene sulfonic acid is more than 1,000 μg/mL in pH 1 or 4, but the water solubility in pH 7 decreases than the solubility in pH 1 or 4.

With CC(C)(NC(=O)C1=C(O)[C@@H]2Oc3c(O)ccc4c3[C@@]23CCN(CC2CC2)[C@H](C4)[C@]3(O)C1)c1nc(-c2ccccc2)no1 [17-(cyclopropylmethyl)-6,7-didehydro-4,5α-epoxy-3,6,14-trihydroxy-N-[2-(3-phenyl-1,2,4-oxadiazol-5-yl)propan-2-yl]morphinan-7-carboxamide 4-methylbenzenesulfonic acid] the water solubility (pH 7, compared with pH 1 or 4) was “decreases” and the solubility (water, simulated gastric fluid, pH 1 or 4) was greater than 1000 µg/mL.
